Active and inactive are the calls of the source. The rule behind the calls is not given here.
Legend:
Hepatitis B virus [1] = test: Inhibition of HBeAg release against HBV in HepG2 2.2.15 cell line at 0.2 umol/mL; assay type: functional; parameters: scale not given: the % may be the effect or the level left
Hepatitis B virus [2] = test: Inhibition of HBsAg release against HBV in HepG2 2.2.15 cell line at 0.1 umol/mL; assay type: functional; parameters: scale not given: the % may be the effect or the level left
HepG2 [3] = test: Cytotoxicity against HepG2 2.2.15 cell line at 0.4 umol/mL by MTT assay; assay type: functional, Homo sapiens
Hepatitis B virus [4] = test: Inhibition of HBeAg release against HBV in HepG2 2.2.15 cell line at 0.1 umol/mL; assay type: functional; parameters: scale not given: the % may be the effect or the level left
Hepatitis B virus [5] = test: Inhibition of HBsAg release against HBV in HepG2 2.2.15 cell line at 0.2 umol/mL; assay type: functional; parameters: scale not given: the % may be the effect or the level left
HepG2 [6] = test: Cytotoxicity against HepG2 2.2.15 cell line at 1.6 umol/mL by MTT assay; assay type: functional, cell-based; conditions: Homo sapiens
Hepatitis B virus [7] = test: Inhibition of HBsAg release against HBV in HepG2 2.2.15 cell line at 0.8 umol/mL; assay type: functional; parameters: scale not given: the % may be the effect or the level left
Hepatitis B virus [8] = test: Inhibition of HBeAg release against HBV in HepG2 2.2.15 cell line at 0.4 umol/mL; assay type: functional; parameters: scale not given: the % may be the effect or the level left
Hepatitis B virus [9] = test: Inhibition of HBeAg release against HBV in HepG2 2.2.15 cell line at 0.8 umol/mL; assay type: functional; parameters: scale not given: the % may be the effect or the level left
Hepatitis B virus [10] = test: Inhibition of HBsAg release against HBV in HepG2 2.2.15 cell line at 0.4 umol/mL; assay type: functional; parameters: scale not given: the % may be the effect or the level left
HepG2 [11] = test: Cytotoxicity against HepG2 2.2.15 cell line at 0.8 umol/mL by MTT assay; assay type: functional, cell-based; conditions: Homo sapiens

Row | SMILES | Activity (Hepatitis B virus [1]) | Activity (Hepatitis B virus [2]) | Activity (HepG2 [3]) | Activity (Hepatitis B virus [4]) | Activity (Hepatitis B virus [5]) | Activity (HepG2 [6]) | Activity (Hepatitis B virus [7]) | Activity (Hepatitis B virus [8]) | Activity (Hepatitis B virus [9]) | Activity (Hepatitis B virus [10]) | Activity (HepG2 [11])
1 | O=C1CC=C[C@@H]2[C@H]3CCCN4CCC[C@@H](CN12)[C@@H]34 | 25.4% | 25.1% | >=25% | 22.6% | 52.6% |  |  |  |  |  | 
2 | O=C1C=CC[C@@H]2[C@H]3CCCN4CCC[C@H](CN12)[C@@H]34 | 6.8% | 17.9% |  | 0% | 63.4% | Active | 79.3% | 22.4% | 27.6% | 78.2% | 
3 | O=C1C=CC[C@@H]2[C@H]3CCC[N+]4([O-])CCC[C@@H](CN12)[C@@H]34 (some centres undefined) [OXYSOPHOCARPINE] | 24.6% | 39.9% | >=25% | 22.4% | 48.3% |  |  |  |  |  | 
4 | O=C1CCC[C@@H]2[C@H]3CCCN4CCC[C@@H](CN12)[C@H]34 | 10.8% | 25.1% | >=25% | 9.6% | 27.7% |  |  |  |  |  | 
5 | O=C1C=CC[C@@H]2[C@H]3CCCN4CCC[C@@H](CN12)[C@@H]34 [SOPHOCARPINE] | 34.6% | 21.6% | >=25% | 31.4% | 57.2% |  |  |  |  |  | 
6 | O=C1CCC[C@@H]2[C@H]3CCC[N+]4([O-])CCC[C@@H](CN12)[C@@H]34 (some centres undefined) [OXYMATRINE] | 17.1% | 35.3% | >=25% | 15.8% | 39.7% |  |  |  |  |  | 
7 | O=C1CCC[C@@H]2[C@H]3CCCN4CCC[C@@H](CN12)[C@@H]34 [MATRINE] | 2.7% | 8.9% | >=25% | 0% | 30.9% |  |  |  |  |  | 
8 | O=c1cccc2n1C[C@H]1C[C@H]2CN2CCCC[C@H]12 | 0% |  |  |  | 19.8% |  |  | 0% |  | 33.1% | Active
9 | O=C1C=C[C@H](O)[C@@H]2[C@H]3CCCN4CCC[C@@H](CN12)[C@@H]34 | 4.6% | 28% | >=25% | 0% | 40.8% |  |  |  |  |  | 
10 | O=C1CCC[C@@H]2[C@H]3C[C@H](O)CN4CCC[C@@H](CN12)[C@@H]34 | 19.5% | 18.1% | >=25% | 13.3% | 31.6% |  |  |  |  |  | 
11 | O=C1C=CC[C@@H]2[C@H]3C[C@H](O)CN4CCC[C@@H](CN12)[C@@H]34 | 5.7% | 0% | >=25% | 0% | 24.5% |  |  |  |  |  | 

From ChEMBL document CHEMBL1138991, “(+)-12alpha-Hydroxysophocarpine, a new quinolizidine alkaloid and related anti-HBV alkaloids from Sophora flavescens” (2006)
